ChEMBL document CHEMBL1141387, “Molecular-docking-guided design, synthesis, and biologic evaluation of radioiodinated quinazolinone prodrugs” (J Med Chem, 2007)
In brackets after ≈: the same amount, converted by molar mass.

Columns and labels:
[1] = Aqueous solubility by radiotracer analysis method; type: physicochemical; details: buffer
[2] = PLAP-mediated conversion of prodrug to drug; type: ADME
[3] = Solubility in phosphate buffer by radiotracer analysis method; type: physicochemical

Structure (SMILES)	solubility [1]	Activity [2]	solubility [3]
O=c1[nH]c(-c2ccc(O)cc2O)nc2ccc([127I])cc12	0.00968 µg/mL (≈ 0.0255 µM)		
N.N.N.N.O=P(O)(O)Oc1ccc(-c2nc(O)c3cc([127I])ccc3n2)c(OP(=O)(O)O)c1		Active	4350 µg/mL
N.N.N.N.O=c1[nH]c(-c2ccc(OP(=O)(O)O)cc2OP(=O)(O)O)nc2ccc([125I])cc12		Active	
